Earlier results on one compound are cited in patent publication US20250177267A1, “A CLEANSING COMPOSITION” (Conopco, Inc., d/b/a UNILEVER, priority 2022, published 2025).

For the data set the following is noted: prior art acids with pKa greater than 4.5.

Turning to `CCCCCC(=O)O` [hexanoic acid], the pKa is 4.72.

One may read the pKa as the pH at which an ionisable group is half protonated.
